The source of these data is ChEMBL document CHEMBL1201862, “PubChem BioAssay data set” (2004).

Assay [1] has as its target T1, CAAX prenyl protease 2 (Saccharomyces cerevisiae S288c, UniProt Q03530).
T1 sequence (Q03530 whole entry): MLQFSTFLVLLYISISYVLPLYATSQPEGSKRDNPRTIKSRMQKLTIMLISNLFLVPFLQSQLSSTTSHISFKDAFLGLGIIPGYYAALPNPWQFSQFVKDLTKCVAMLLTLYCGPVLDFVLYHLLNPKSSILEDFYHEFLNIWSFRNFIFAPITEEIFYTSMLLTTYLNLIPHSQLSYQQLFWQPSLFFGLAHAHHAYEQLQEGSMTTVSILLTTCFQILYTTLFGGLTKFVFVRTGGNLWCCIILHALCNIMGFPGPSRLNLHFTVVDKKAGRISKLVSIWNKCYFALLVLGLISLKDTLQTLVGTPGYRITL
It is filed as biochemical.

The target of a further assay is Kallikrein-7 (Homo sapiens, UniProt P49862). Briefly: Fluorescence Intensity-based biochemical primary high throughput dose response assay to identify activators of kallikrein-7 (K7) zymogen.
Sequence of Kallikrein-7 (P49862 whole entry): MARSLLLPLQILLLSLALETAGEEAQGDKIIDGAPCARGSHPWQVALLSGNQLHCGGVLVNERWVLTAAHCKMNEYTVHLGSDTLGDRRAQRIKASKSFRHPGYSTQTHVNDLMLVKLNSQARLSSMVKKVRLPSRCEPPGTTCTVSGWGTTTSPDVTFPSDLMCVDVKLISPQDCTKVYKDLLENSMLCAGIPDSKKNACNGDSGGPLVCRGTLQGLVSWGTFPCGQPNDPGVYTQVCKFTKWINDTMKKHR
The target in a further assay is Trypsin (Sus scrofa, UniProt P00761). As to the kind of experiment: porcine trypsin inhibitors, dose response, selectivity assay for Rce1 protease inhibitor project, biochemical, quenched peptide fluorescence, cherry-pick (AID 488789).
Sequence of Trypsin (P00761 whole entry): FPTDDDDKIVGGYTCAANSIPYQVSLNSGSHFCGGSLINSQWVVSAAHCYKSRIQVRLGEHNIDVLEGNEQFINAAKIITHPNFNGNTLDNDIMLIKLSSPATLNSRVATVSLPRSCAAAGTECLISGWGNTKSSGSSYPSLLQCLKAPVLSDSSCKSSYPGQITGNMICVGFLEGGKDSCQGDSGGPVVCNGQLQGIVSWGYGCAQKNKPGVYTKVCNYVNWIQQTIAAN
Assay [2] deals with T2, CAAX prenyl protease 2 (Homo sapiens, UniProt Q9Y256).
T2 sequence (Q9Y256 whole entry): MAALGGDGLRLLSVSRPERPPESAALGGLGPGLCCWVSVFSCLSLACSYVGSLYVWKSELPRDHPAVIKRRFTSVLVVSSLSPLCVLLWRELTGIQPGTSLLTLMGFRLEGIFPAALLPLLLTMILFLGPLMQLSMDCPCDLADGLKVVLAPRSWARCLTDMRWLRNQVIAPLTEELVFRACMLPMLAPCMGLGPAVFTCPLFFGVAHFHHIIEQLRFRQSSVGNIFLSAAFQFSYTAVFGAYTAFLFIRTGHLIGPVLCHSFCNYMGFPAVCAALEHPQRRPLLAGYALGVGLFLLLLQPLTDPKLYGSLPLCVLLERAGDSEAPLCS
As to the kind of experiment: human Rce1 protease inhibitors, dose response, biochemical, yeast membranes, quenched-peptide fluorescence, cherry-pick (AID 588849).

A short description of assay [3]: Late stage assay provider results from the probe development effort to identify inhibitors of the Plasmodium falciparum M18 Aspartyl Aminopeptidase (M18AAP): radiolabel-based cell-based dose response assay to identify compounds that inhibit P. falciparum growth in RBCs, Set 2.. It is filed as functional.
Assay [4] can be described thus: Late stage counterscreen for inhibitors of Trypanosoma brucei methionyl tRNA synthetase (MetRS): Luminescence-based cell-based high throughput dose response assay to identify compounds that are cytotoxic to Jurkat human T lymphocyte cells. The assay is classed as functional.
Assay [5] concerns the target T3, Methionyl-tRNA synthetase, putative (Trypanosoma brucei brucei, UniProt Q38C91). The assay is classed as functional, Trypanosoma brucei brucei strain 927/4 GUTat10.1.
The target in assay [6] is T3, Methionyl-tRNA synthetase, putative. The assay is classed as functional, Trypanosoma brucei brucei strain 927/4 GUTat10.1. This is another data set of the same source.
Assay [7] can be described thus: Counterscreen for inhibitors of Trypanosoma brucei methionyl tRNA synthetase (MetRS): Luminescence-based cell-based high throughput dose response assay to identify compounds that are cytotoxic to Jurkat human T lymphocyte cells. The assay is classed as functional.
Assay [8] is described as follows: IGROV1 ovarian cancer cell cytotoxicity, dose response, PAX8 inhibitor project, plate reader, dry powder samples (AID 743043). The assay is classed as functional, cell-based. To be noted: IGROV-1.
Assay [9] in a line: HEK293 cell cytotoxicity, dose response, cytotoxicity control, plate reader, cherry-picked samples (AID 743446). The assay is classed as functional, cell-based.
Assay [10] is described as follows: IOSE-T80 ovarian epithelial cell cytotoxicity, dose response, cytotoxicity control for PAX8 inhibitor project, plate reader, dry powder samples (AID 743045). The assay is classed as functional, cell-based.
Assay [11] is described as follows: P. falciparum Dd2 growth inhibitors, dose response, SYBR Green, cherry-picked samples (AID 1159567). It is filed as functional, cell-based.
Assay [12] can be described thus: MC4R antagonists, dose response, counter-screen for LGR2 antagonist project, cell-based, plate reader, cherry pick (AID 743444).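 Also: transfected HEK 293 cells stimulated with alpha-MSH peptide; potency of inhibitors of the alpha-MSH evoked signal.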 The assay is classed as functional.
A short description of assay [13]: HepG2 cell cytotoxicity, dose response, cytotoxicity control, plate reader, cherry-pick, antagonist series (AID 743416). The assay is classed as functional, cell-based.
Assay [14] is described as follows: NIH:OVCAR-3 ovarian cancer cell cytotoxicity, dose response, PAX8 inhibitor project, plate reader, dry powder samples (AID 743044). The assay is classed as functional, cell-based.
Assay [15] can be described thus: cytotoxicity in OVCAR8 ovarian cancer cells, dose response, PAX8 project, cell-based, plate reader, dry powder samples (AID 743197). The assay is classed as functional. The note with it: OVCAR-8.
Assay [16] in a line: LGR2 antagonists, dose response, cell-based, HEK293, CRE-luciferase reporter, cherry pick, set 2 (AID 743343).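 Also: transfected cells were stimulated with diluted bursicon conditioned medium after compound addition.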 The assay is classed as functional.
For another assay, the target named is Paired box protein Pax-8 (Homo sapiens, UniProt Q06710). Briefly: inhibitors of PAX8-driven TPO luciferase reporter, dose response, RMG-I cells, cherry-pick (AID 687027).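 Also: luciferase reporter driven by Pax8 target thyroperoxidase promoter measured by SteadyGlo luminescence.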 It is filed as functional, cell-based.
Sequence of Paired box protein Pax-8 (Q06710 whole entry): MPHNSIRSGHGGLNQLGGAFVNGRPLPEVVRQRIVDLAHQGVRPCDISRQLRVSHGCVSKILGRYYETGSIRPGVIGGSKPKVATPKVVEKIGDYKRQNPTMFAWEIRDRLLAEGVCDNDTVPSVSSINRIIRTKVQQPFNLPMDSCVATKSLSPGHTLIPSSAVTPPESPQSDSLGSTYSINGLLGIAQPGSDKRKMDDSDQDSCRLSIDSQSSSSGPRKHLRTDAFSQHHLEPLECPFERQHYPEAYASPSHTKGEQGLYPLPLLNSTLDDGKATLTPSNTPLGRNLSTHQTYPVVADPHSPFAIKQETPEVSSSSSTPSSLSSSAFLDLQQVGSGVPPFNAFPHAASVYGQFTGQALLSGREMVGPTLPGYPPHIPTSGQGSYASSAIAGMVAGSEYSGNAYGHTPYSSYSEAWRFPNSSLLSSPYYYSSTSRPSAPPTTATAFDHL
A short description of assay [17]: A549 cell cytotoxicity, dose response, cytotoxicity control, plate reader, cherry-pick, antagonist series (AID 743412). The assay is classed as functional, cell-based.
Assay [18] in a line: control 3'UTR Renilla luciferase suppression, dose response, counter-screen for Shn3 inhibitor project, cell-based, Clone20-Shn3RL, cherry-picked (AID 624133). It is filed as functional.
In a further assay the target is T4, Protein RecA (Mycobacterium tuberculosis, UniProt P9WHJ3).
T4 sequence (P9WHJ3 whole entry): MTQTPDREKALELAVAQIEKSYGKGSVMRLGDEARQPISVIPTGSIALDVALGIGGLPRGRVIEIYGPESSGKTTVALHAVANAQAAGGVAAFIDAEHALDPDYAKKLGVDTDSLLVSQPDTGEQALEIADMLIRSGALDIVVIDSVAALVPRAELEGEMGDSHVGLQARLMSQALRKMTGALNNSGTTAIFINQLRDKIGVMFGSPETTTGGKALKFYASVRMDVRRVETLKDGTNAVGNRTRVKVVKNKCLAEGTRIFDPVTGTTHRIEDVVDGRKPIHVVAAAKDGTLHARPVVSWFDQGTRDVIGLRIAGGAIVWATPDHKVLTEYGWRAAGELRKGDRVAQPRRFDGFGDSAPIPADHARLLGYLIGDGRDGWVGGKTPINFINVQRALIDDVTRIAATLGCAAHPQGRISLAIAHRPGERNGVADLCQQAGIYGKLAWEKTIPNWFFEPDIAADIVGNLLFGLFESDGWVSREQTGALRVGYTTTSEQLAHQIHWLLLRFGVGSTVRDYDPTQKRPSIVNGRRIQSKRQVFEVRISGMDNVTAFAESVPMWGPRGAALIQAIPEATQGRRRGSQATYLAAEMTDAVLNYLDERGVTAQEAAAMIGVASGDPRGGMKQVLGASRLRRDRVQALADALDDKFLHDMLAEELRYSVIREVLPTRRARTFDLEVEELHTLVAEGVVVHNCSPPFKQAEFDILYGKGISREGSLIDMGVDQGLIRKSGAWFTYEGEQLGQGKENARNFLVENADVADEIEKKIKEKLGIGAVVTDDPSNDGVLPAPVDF
Briefly: Fluorescence Cell-Free Homogeneous Dose Retest to Identify Inhibitors of RecA-Intein Splicing Activity. [Related pubchem assays (depositor defined):AID2097, AID2223, AID489010, AID492950]. It is filed as functional.

In the next assay the test system is INS1. Briefly: beta cell apoptosis inhibitors, cytokine rescue, dose response, luminescence, retest (AID 449756).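 Also: cell death triggered by IL-1 beta plus TNF-alpha plus IFN-gamma mixture; protective hits raise ATP signal compared with cytokine alone wells.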 It is filed as functional, cell-based. The note with it: Rattus norvegicus.
The target of assay [19] is COUP transcription factor 2 (Homo sapiens, UniProt P24468). As to the kind of experiment: Luminescence-based cell-based high throughput dose response assay to identify inhibitors of COUP-TFII (NR2F2). It is filed as functional.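 Also: HEK293 cells transiently cotransfected with COUP-TFII expression vector and reporter; luciferase reporter luminescence driven by COUP-TFII from the pX2-168 reporter plasmid.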
Sequence of COUP transcription factor 2 (P24468 whole entry): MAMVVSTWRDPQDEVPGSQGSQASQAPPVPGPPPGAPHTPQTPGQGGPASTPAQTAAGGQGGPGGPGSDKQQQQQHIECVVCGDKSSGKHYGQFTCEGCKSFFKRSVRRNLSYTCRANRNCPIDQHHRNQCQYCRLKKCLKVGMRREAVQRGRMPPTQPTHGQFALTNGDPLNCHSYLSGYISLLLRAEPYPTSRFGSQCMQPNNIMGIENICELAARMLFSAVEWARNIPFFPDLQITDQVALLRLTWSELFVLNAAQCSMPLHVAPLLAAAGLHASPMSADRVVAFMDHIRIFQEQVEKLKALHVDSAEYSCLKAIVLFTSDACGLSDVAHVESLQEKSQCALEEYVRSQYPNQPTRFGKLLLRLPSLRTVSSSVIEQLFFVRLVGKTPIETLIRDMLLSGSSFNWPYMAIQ
Assay [20] is described as follows: HepG2 cell cytotoxicity, dose response, cytotoxicity control for Shn3 inhibitor project, CellTiter-Glo, cherry-picked (AID 624134). The assay is classed as functional, cell-based.
A short description of assay [21]: Shn3 3'UTR reporter inhibitors, dose response, cell-based, Clone20 osteoblasts, firefly luciferase, cherry-picked (AID 624132).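 Also: firefly luciferase luminescence from reporter carrying the Shn3 3'UTR in osteoblasts.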 It is filed as functional.
The target in assay [22] is T5, Replicative DNA helicase DnaB (Mycobacterium tuberculosis, UniProt P9WMR3).
T5 sequence (P9WMR3 whole entry): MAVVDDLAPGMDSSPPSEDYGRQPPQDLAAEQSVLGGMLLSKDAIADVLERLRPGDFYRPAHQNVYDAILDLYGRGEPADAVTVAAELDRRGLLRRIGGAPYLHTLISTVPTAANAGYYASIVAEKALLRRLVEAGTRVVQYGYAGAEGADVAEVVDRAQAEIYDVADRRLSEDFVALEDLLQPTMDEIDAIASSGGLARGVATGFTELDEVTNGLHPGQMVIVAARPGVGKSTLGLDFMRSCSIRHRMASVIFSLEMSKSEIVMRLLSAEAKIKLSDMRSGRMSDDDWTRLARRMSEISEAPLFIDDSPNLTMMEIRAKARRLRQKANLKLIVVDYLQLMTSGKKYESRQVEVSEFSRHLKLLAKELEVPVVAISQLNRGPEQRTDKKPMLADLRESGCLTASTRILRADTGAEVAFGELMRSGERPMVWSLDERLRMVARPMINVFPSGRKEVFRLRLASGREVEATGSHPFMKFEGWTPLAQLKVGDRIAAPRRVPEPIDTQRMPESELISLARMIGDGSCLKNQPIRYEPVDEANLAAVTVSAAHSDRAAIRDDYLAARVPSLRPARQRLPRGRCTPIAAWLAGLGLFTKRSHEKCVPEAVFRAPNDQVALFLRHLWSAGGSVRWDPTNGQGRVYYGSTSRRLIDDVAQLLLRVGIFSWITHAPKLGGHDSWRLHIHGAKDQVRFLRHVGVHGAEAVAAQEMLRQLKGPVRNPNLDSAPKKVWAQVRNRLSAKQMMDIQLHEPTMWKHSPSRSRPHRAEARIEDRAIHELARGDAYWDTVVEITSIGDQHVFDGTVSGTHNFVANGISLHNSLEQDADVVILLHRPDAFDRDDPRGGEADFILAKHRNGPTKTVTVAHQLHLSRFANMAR
As to the kind of experiment: DnaB intein splicing inhibitors, dose response, biochemical, cell-free fluorescence (AID 449749). It is filed as functional.

Calls of active or inactive are those of the source.

T3 sequence (Q38C91 whole entry): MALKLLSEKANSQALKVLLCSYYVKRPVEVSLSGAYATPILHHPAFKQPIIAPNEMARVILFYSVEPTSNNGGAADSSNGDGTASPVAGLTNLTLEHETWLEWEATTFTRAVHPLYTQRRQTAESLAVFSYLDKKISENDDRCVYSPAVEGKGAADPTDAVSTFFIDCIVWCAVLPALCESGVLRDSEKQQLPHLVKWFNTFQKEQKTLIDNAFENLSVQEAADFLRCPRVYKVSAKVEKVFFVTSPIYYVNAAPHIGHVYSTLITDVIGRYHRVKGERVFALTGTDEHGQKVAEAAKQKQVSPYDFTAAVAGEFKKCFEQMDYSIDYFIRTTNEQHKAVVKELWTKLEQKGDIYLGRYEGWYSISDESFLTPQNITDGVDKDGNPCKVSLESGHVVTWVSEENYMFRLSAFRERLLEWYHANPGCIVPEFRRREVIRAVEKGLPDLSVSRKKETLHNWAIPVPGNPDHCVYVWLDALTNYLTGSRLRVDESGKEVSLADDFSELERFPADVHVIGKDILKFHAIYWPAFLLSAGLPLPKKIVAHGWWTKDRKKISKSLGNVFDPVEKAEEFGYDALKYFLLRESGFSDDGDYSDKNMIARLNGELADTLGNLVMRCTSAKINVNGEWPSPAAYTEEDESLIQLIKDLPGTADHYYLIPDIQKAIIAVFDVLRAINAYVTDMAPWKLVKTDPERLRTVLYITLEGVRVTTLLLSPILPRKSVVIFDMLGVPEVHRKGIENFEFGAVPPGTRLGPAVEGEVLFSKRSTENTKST

Turning to `Cc1oc2c(CN3CCCC3)c(O)ccc2c(=O)c1-c1ccc(Br)cc1`, the half-maximal activity concentration (AC50) was 12 µM (active) at CAAX prenyl protease 2 [1], 9.06 µM (active) at Trypsin and 10 µM (active) on CAAX prenyl protease 2 [2]. Further, at Kallikrein-7, the EC50 is > 69.5 µM (inactive).

Regarding `Oc1ccc(CCCNc2c3ccccc3nc3ccccc23)cc1O`, the IC50 in [3] is 3.7 µM (active).

On to `O=C(Cn1cc(C(=O)C(=O)N2CCOCC2)c2ccccc21)Nc1cccc(C(F)(F)F)c1`, for which the IC50 in assay [4] is > 83.3 µM (inactive); in [5], 0.205 µM (active); in assay [6], 0.352 µM (active); in [7], 77.5 µM (inactive).

Turning to `Cn1cnc(S(=O)(=O)N2C[C@@H]3N[C@H](C2)[C@@H]3c2ccc(-c3ccccc3F)cc2)c1`, the AC50 in [8] is 27.1 µM (active); in assay [9], > 52 µM (inactive); in assay [10], 25.9 µM (active); in assay [11], 3.72 µM (active); in [12], 6.25 µM (active); in assay [13], 28.2 µM (active). For the same compound, the AC50 in [14] was 22 µM (active); in [15], 24.5 µM (active); in assay [16], 18.9 µM (active); at Paired box protein Pax-8, 4.26 µM (active); in assay [17] it was 11 µM (active).

Regarding `Cc1cccc(Nc2nc(NCc3ccco3)c3ccccc3n2)c1`, the AC50 in [18] was 3.22 µM (active); in the assay on INS1 it was 2.09 µM (active); in assay [20], 13.1 µM (active); in assay [21], 2.05 µM (active); in assay [22], 5.65 µM (active). Moreover, on Protein RecA, the EC50 is 9.37 µM (active). Further, the IC50 in assay [19] was 8.5 µM (active).
